The values below come from patent publication US20240226130A1, “4'-THIONUCLEOSIDE ANALOGUES AND THEIR PHARMACEUTICAL USE” (Gilead Sciences, Inc., priority 2022, published 2024).

Data set [1] can be described thus: Cytotoxicity assay in MT-4 cells. It is filed as cell-based. The conditions noted are these: human, uninfected MT-4 cells, read-out: MT4 CC50. On the procedure: Example 10: Cytotoxicity Assay in MT-4 Cells
Assays were performed as described in Example 9 except uninfected MT-4 cells were added to each well containing test compound. In addition, 10 μM puromycin was added to the last column of each assay plate to assess a base level of cytotoxicity.

For data set [2], the system named is HIV-1 (IIIB). Briefly: Antiviral (HIV) assay in MT-4 cells. Type of data set: cell-based. The conditions noted are these: Human immunodeficiency virus 1, MT4, 120 h; HIV-1 IIIB in MT-4 cells, 5 days, Cell Titer Glo; read-out: MT4 HIV EC50. On the procedure:
Example 9: Antiviral (HIV) Assay in MT-4 Cells
Compounds were tested in a high-throughput 384-well assay format for their ability to inhibit the replication of HIV-1 (IIIB) in MT-4 cells. Compounds were serially diluted (1:3) in DMSO on 384-well polypropylene plates and further diluted 200-fold into complete RPMI media (10% FBS, 1% P/S) using the Biotek Micro Flow and Labcyte ECHO acoustic dispenser. Each plate contained up to 8 test compounds, with negative (no drug) and positive (5 μM AZT) controls. MT-4 cells were pre-treated with 10 μL of either RPMI (mock-infected) or a fresh 1:250 dilution of HIV-1 IIIB concentrated virus stock. Infected and uninfected MT-4 cells were further diluted in complete RPMI media and added to each plate using a Micro Flow dispenser. After 5 days incubation in a humidified and temperature-controlled incubator (37° C.), Cell Titer Glo (Promega) was added to the assay plates and chemiluminescence read using an Envision plate-reader. EC50 values were defined as the compound concentration that causes a 50% decrease in luminescence signal and were calculated using a sigmoidal dose-response model to generate curve fits and are shown in Table 1.

Data set [3] can be described thus: Rhesus pharmacokinetic study, oral compound 7 (plasma and PBMC). The conditions noted are these: for Intracellular concentration in PBMC: LOQ 0.16 μM compound 7, 0.04 μM triphosphate. On the procedure:
The oral dose was administered via oral gavage, and after dose administration the dose apparatus was flushed with approximately 10 mL water before removal from the animal. Food was returned 4 hours after dosing. […] The K2EDTA tubes were kept chilled at approximately 5° C. until centrifugation (4° C., 5 minutes, 2000×g) to collect plasma. Centrifugation began within 1 hour of collection. Plasma samples were harvested, placed in micronic tubes, and maintained on dry ice prior to storage at −70° C. until analysis by LC-MS/MS. […] The sodium citrate tubes were then gently inverted 3-4 times and stored upright at ambient temperature until centrifugation to collect PBMCs. Centrifugation began as soon as possible following collection, within 6 hours after collection. The PBMCs were separated by centrifugation (30 minutes at 1500×g-1800×g, 18-20° C.), washed once with ice cold 0.9% NaCl and treated with red blood cell lysis buffer (3.5 g ammonium chloride and 0.036 g ammonium carbonate in 500 mL ultrapure water, prepared before first blood collection) for 10 minutes at ambient temperature. Subsequently, the cells were washed twice with ice cold 0.9% NaCl and the cell pellet maintained at −70° C. until analysis by LC-MS/MS.

A short description of data set [4]: Rhesus pharmacokinetic study, intravenous compound 7 (plasma and PBMC). The conditions noted are these: for Intracellular concentration in PBMC: LOQ 2.5 μM compound 7, 0.63 μM triphosphate. On the procedure:
Male Indian Origin Rhesus Monkeys were used for the pharmacokinetic studies. Studies were conducted under a protocol approved by IACUC. […] The intravenous dose was administered as an approximately 30-minute infusion, and after dose administration the dose apparatus was flushed with approximately 1 mL saline before removal from the animal. Food was returned 4 hours after dosing. […] The K2EDTA tubes were kept chilled at approximately 5° C. until centrifugation (4° C., 5 minutes, 2000×g) to collect plasma. Centrifugation began within 1 hour of collection. Plasma samples were harvested, placed in micronic tubes, and maintained on dry ice prior to storage at −70° C. until analysis by LC-MS/MS. […] The sodium citrate tubes were then gently inverted 3-4 times and stored upright at ambient temperature until centrifugation to collect PBMCs. Centrifugation began as soon as possible following collection, within 6 hours after collection. The PBMCs were separated by centrifugation (30 minutes at 1500×g-1800×g, 18-20° C.), washed once with ice cold 0.9% NaCl and treated with red blood cell lysis buffer (3.5 g ammonium chloride and 0.036 g ammonium carbonate in 500 mL ultrapure water, prepared before first blood collection) for 10 minutes at ambient temperature. Subsequently the cells were washed twice with ice cold 0.9% NaCl, the cell pellet resuspended in ice cold RIPA buffer (fortified with Pierce protease ad phosphatase inhibitor tablet), snap frozen in liquid nitrogen, and maintained at −70° C. until analysis by LC-MS/MS.

The mark [5] stands for this setting: male, Indian Origin, rhesus monkey, peripheral blood mononuclear cells (PBMC), po, 7.5 mg/kg.
Setting [6] is: male, Indian Origin, rhesus monkey, plasma, po, 7.5 mg/kg.
[7] abbreviates: male, Indian Origin, rhesus monkey, plasma, iv, 1 mg/kg.

Regarding `C#C[C@]1(CO)S[C@@H](n2cc(F)c(N)nc2=O)C[C@@H]1O` [Compound 7, 4-Amino-1-((2R,4S,5R)-5-ethynyl-4-hydroxy-5-(hydroxymethyl)tetrahydrothiophen-2-yl)-5-fluoropyrimidin-2(1H)-one], the CC50 at 5 days in data set [1] came to 24 µM. The EC50 in data set [2] worked out at 0.018 µM. In addition, the “Intracellular concentration in PBMC” value in data set [3] (48 hr after oral 7.5 mg/kg compound 7), in data set [3] (72 hr after oral 7.5 mg/kg compound 7), in data set [3] (120 hr after oral 7.5 mg/kg compound 7), in data set [3] (168 hr after oral 7.5 mg/kg compound 7), in data set [4] (12 hr after intravenous 1 mg/kg compound 7) and in data set [4] (24 hr after intravenous 1 mg/kg compound 7) was “BLQ” in each case. Also, the “Intracellular concentration in PBMC” value in data set [4] (48 hr after intravenous 1 mg/kg compound 7), in data set [4] (72 hr after intravenous 1 mg/kg compound 7), in data set [4] (144 hr after intravenous 1 mg/kg compound 7) and in data set [4] (168 hr after intravenous 1 mg/kg compound 7) was “BLQ” in each case. For the same compound, the half-life in data set [3] (male, Indian Origin, rhesus monkey, in vivo, po, 7.5 mg/kg) is 25.1 ± 16.3 h; in data set [4] (male, Indian Origin, rhesus monkey, in vivo, iv, 1 mg/kg), 50 ± 26.4 h. In data set [3] (setting [5]), this compound came in with a concentration at 12 h of 560 ± 30 nM. For the same compound, the concentration at 24 h in data set [3] (setting [5]) was found to be 370 ± 200 nM. Besides, the results for the AUC(0-t) in data set [3] (setting [6]) and in data set [4] (setting [7]) were 20.1 ± 14.9 µM·h and 14.6 ± 3.01 µM·h, respectively. In addition, the Cmax in data set [3] (setting [6]) came to 1500 ± 350 nM; in data set [4] (setting [7]), 3770 ± 310 nM.
